Measurements taken from US5482967A, “Condensed heterocyclic compounds, their production and use” (Takeda Chemical Industries, Ltd., priority 1992, dated 1996).

target: substance P receptor (Homo sapiens, UniProt P25103); experiment: Radioligand receptor binding inhibitory assay using receptor from human lymphoblast cells (IM-9), 125I-BHSP; conditions: IM-9 receptor, 25° C., 30 minutes
Procedure, shortened: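 IM-9 lymphoblast membranes (suspended at 1.5 mg/ml protein) were incubated with 125I-BHSP (0.46 KBq) at 25 °C for 30 min in 50 mM Tris-HCl pH 7.4 with BSA, protease inhibitors and 3 mM MnCl2. Nonspecific binding was defined with 2×10^-6 M substance P. Bound radioactivity was collected on PEI-treated GF/B filters and gamma-counted.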

substance P receptor, sequence (P25103 whole entry): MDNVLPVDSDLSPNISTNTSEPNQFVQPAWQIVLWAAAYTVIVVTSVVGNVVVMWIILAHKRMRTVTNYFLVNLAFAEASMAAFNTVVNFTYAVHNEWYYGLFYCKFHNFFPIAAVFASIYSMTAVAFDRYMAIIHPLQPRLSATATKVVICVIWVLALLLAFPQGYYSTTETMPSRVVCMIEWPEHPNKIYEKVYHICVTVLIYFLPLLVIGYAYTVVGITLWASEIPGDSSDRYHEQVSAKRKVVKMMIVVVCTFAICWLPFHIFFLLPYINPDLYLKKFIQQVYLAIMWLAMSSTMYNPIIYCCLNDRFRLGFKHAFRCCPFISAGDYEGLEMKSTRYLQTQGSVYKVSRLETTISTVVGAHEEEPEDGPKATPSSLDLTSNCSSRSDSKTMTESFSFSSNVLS

IC50	SMILES
3 nM	CN(Cc1cc(C(F)(F)F)cc(C(F)(F)F)c1)C(=O)c1ncc2ccccc2c1-c1ccccc1 [Example 276, N-[3,5-Bis(trifluoromethyl)benzyl]-N-methyl-4-phenyl-3-isoquinolinecarboxamide]
31 nM	Cn1c(C(=O)NCc2cc(C(F)(F)F)cc(C(F)(F)F)c2)c(-c2ccccc2C(F)(F)F)c2ccccc2c1=O [Example 181, N-[3,5-Bis(trifluoromethyl)benzyl]-1,2-dihydro-2-methyl-1-oxo-4-(2-trifluoromethylphenyl)-3-isoquinolinecarboxamide]
16 nM	Cc1ccccc1-c1c(C(=O)N(C)Cc2cc(C(F)(F)F)cc(C(F)(F)F)c2)c(=O)oc2ccc(Cl)cc12 [Example 248]
6.1 nM	Cn1c(C(=O)NCc2cc(C(F)(F)F)cc(C(F)(F)F)c2)c(-c2ccccc2)c2ccccc2c1=O [Example 156, N-[3,5-Bis(trifluoromethyl)benzyl]-1,2-dihydro-2-methyl-1-oxo-4-phenyl-3-isoquinolinecarboxamide]
0.52 nM	CN(Cc1cc(C(F)(F)F)cc(C(F)(F)F)c1)C(=O)c1cnc2ccccc2c1-c1ccccc1 [Example 265, N-[3,5-Bis(trifluoromethyl)benzyl]-N-methyl-4-phenyl-3-quinolinecarboxamide]

target: T1, acyl-CoA:cholesterol acyl transferase (ACAT) (Rattus norvegicus, UniProt Q7TQM4); experiment: Inhibitory action against acyl-CoA:cholesterol acyl transferase (ACAT), formation of labeled cholesterol ester, small intestine mucosal microsome fraction; type: biochemical, male Sprague-Dawley rat; conditions: 10^-6 M; read-out: ACAT Inhibitory Rate (%)
T1 construct: small intestine mucosal microsome fraction of a 6-week-old male Sprague-Dawley rat; from tissue; host or cells: rat small intestine mucosa, microsome fraction
T1 sequence (Q7TQM4 1-524): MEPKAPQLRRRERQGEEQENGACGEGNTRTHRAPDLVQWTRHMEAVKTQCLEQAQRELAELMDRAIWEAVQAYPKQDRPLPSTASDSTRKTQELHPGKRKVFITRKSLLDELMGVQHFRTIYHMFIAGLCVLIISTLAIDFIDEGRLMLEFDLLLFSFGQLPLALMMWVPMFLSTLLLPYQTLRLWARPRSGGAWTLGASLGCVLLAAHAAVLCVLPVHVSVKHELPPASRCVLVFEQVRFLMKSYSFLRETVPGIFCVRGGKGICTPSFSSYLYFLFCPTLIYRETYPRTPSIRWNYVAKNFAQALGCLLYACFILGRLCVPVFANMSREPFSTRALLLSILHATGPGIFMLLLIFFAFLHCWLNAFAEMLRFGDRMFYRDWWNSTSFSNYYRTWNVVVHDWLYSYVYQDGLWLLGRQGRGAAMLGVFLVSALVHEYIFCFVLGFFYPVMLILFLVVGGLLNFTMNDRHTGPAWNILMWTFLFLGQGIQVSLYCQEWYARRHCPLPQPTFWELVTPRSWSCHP
Method: An ACAT enzyme preparation was prepared from a small intestine mucosal microsome fraction of a 6-week-old male Sprague-Dawley rat, previously fasted for 20 hours, in accordance with the method described by Heider et al. in the Journal of Lipid Research, Vol. 24, page 1127 (1982).
ACAT activity was determined by measuring the amount of labeled cholesterol ester produced from [1-^14 C]-oleoyl-CoA and endogenous cholesterol, in accordance with the method of Helgerud et al. [Journal of Lipid Research, Vol. 22, page 271 (1981)].

SMILES	inhibition at 1 µM
Cc1cc2c(cc1C)N(C)C[C@@H](C(=O)Nc1c(C(C)C)cccc1C(C)C)[C@@H]2c1ccccc1Cl (relative stereo) [Example 15, 3,4-trans-N-[2,6-Bis(1-methylethyl)phenyl]-4-(2-chlorophenyl)-1,2,3,4-tetrahydro-1,6,7-trimethyl-3-quinolinecarboxamide]	90.2%
COc1cc(OC)c(NC(=O)CC2C(=O)N(C)c3ccc(Cl)cc3N2c2ccccc2)c(OC)c1 (stereo not shown) [Example 43, 6-Chloro-1,2,3,4-tetrahydro-1-methyl-2-oxo-4-phenyl-N-(2,4,6-trimethoxyphenyl)-3-quinoxalineacetamide]	98.2%
CN1C(=O)[C@@H](CC(=O)Nc2ccc(F)cc2F)[C@H](c2ccccc2)c2cc(Cl)ccc21 (relative stereo) [Example 27, 3,4-trans-6-Chloro-N-(2,4-difluorophenyl)-1,2,3,4-tetrahydro-1-methyl-2-oxo-4-phenyl-3-quinolineacetamide]	92%
CC(C)c1cccc(C(C)C)c1NC(=O)CC1C(=O)N(C)c2ccc(Cl)cc2N1c1ccccc1 (stereo not shown) [Example 42, N-[2,6-Bis(1-methylethyl)phenyl]-6-chloro-1,2,3,4-tetrahydro-1-methyl-2-oxo-4-phenyl-3-quinoxalineacetamide]	96.6%
CC(C)c1ccc2c(c1)[C@@H](c1ccc(F)cc1)[C@H](C(=O)Nc1c(C(C)C)cccc1C(C)C)C(=O)O2 (relative stereo) [Example 13, 3,4-trans-N-[2,6-Bis(1-methylethyl)phenyl]-4-(4-fluorophenyl)-3,4-dihydro-6-(1-methylethyl)-2-oxo-2H-1-benzopyran-3-carboxamide]	93.8%
Cc1cc2c(cc1C)N(C)C(=O)[C@@H](CC(=O)Nc1c(C(C)C)cccc1C(C)C)[C@@H]2c1ccccc1Cl (relative stereo) [Example 20, 3,4-trans-N-[2,6-Bis(1-methylethyl)phenyl]-4-(2-chlorophenyl)-1,2,3,4-tetrahydro-1,6,7-trimethyl-2-oxo-3-quinolineacetamide]	97.8%
CC(C)c1cccc(C(C)C)c1NC(=O)Cc1cnc2ccc(Cl)cc2c1-c1ccccc1 [Example 57, N-[2,6-Bis(1-methylethyl)phenyl]-6-chloro-4-phenyl-3-quinolineacetamide]	99.3%
Cc1cccc(C)c1NC(=O)C[C@@H]1C(=O)N(C)c2ccc(Cl)cc2[C@H]1c1ccccc1 (relative stereo) [Example 29, 3,4-trans-6-Chloro-N-(2,6-dimethylphenyl)-1,2,3,4-tetrahydro-1-methyl-2-oxo-4-phenyl-3-quinolineacetamide]	98.4%
Cc1ccc2c(c1)[C@@H](c1ccccc1)[C@H](CC(=O)Nc1c(C(C)C)cccc1C(C)C)C(=O)N2C (relative stereo) [Example 60, 3,4-trans-N-[2,6-Bis(1-methylethyl)phenyl]-1,2,3,4-tetrahydro-1,6-dimethyl-2-oxo-4-phenyl-3-quinolineacetamide]	99.9%
Cc1cc2c(cc1C)N(C)C(=O)[C@@H](C(=O)Nc1ccc(F)cc1F)[C@@H]2c1ccccc1Cl (relative stereo) [Example 10, 3,4-trans-4-(2-Chlorophenyl)-N-(2,4-difluorophenyl)-1,2,3,4-tetrahydro-1,6,7-trimethyl-2-oxo-3-quinolinecarboxamide]	93.3%
CC(C)c1cccc(C(C)C)c1NC(=O)CC1C(=O)N(C)c2ccc(Cl)cc2C1(C)c1ccccc1 (stereo not shown) [Example 19, N-[2,6-Bis-(1-methylethyl)phenyl]-6-chloro-1,2,3,4-tetrahydro-1,4-dimethyl-2-oxo-4-phenyl-3-quinolineacetamide]	99.1%
Cc1cccc(NC(=O)[C@H]2[C@H](c3ccc(F)cc3)c3ccccc3C(=O)N2C)c1 (relative stereo) [Example 9, 3,4-trans-4-(4-Fluorophenyl)-1,2,3,4-tetrahydro-2-methyl-N-(3-methylphenyl)-1-oxo-3-isoquinolinecarboxamide]	90.3%
COc1cc(OC)c(NC(=O)C[C@@H]2C(=O)N(C)c3ccc(Cl)cc3[C@H]2c2ccccc2)c(OC)c1 (relative stereo) [Example 25, 3,4-trans-6-Chloro-1,2,3,4-tetrahydro-1-methyl-2-oxo-4-phenyl-N-(2,4,6-trimethoxyphenyl)-3-quinolineacetamide]	96.9%
CC(C)c1cccc(C(C)C)c1NC(=O)C[C@H]1CN(C)c2ccc(Cl)cc2[C@H]1c1ccccc1 (relative stereo) [Example 36, 3,4-cis-N-[2,6-Bis(1-methylethyl)phenyl]-6-chloro-1,2,3,4-tetrahydro-1-methyl-4-phenyl-3-quinolineacetamide]	98.8%

Other lines, results leading:

inhibition at 1 µM	SMILES
99.7%	Cc1ccc2oc(=O)c(CC(=O)Nc3c(C(C)C)cccc3C(C)C)c(-c3ccccc3)c2c1 [Example 53, N-[2,6-Bis(1-methylethyl)phenyl]-6-methyl-2-oxo-4-phenyl-2H-1-benzopyran-3-acetamide]
99.5%	CC(C)c1cccc(C(C)C)c1NC(=O)Cc1c(-c2ccccc2)c2cc(Cl)ccc2n(C)c1=O [Example 45, N-[2,6-Bis(1-methylethyl)phenyl]-6-chloro-1,2-dihydro-1-methyl-2-oxo-4-phenyl-3-quinolineacetamide]
99.3%	CCOc1cc(F)cc(OCC)c1NC(=O)Cc1c(-c2ccccc2C(F)(F)F)c2cc(Cl)ccc2oc1=O [Example 96, 6-Chloro-N-(2,6-diethoxy-4-fluorophenyl)-2-oxo-4-(2-trifluoromethylphenyl)-2H-1-benzopyran-3-acetamide]
99.3%	Cc1cc(C)c(NC(=O)Cc2c(-c3ccccc3C)c3cc(Cl)ccc3oc2=O)c(C)c1 [Example 87, 6-Chloro-4-(2-methylphenyl)-2-oxo-N-(2,4,6-trimethylphenyl)-2H-1-benzopyran-3-acetamide]
98.6%	CC(C)c1cccc(C(C)C)c1NC(=O)Cc1c(-c2ccccc2C(F)(F)F)c2cc(Cl)ccc2oc1=O [Example 94, N-[2,6-Bis(1-methylethyl)phenyl]-6-chloro-2-oxo-4-(2-trifluoromethylphenyl)-2H-1-benzopyran-3-acetamide]
99.5%	COc1cc(OC)c(NC(=O)Cc2c(-c3ccccc3C)c3cc(Cl)ccc3oc2=O)c(OC)c1 [Example 85, 6-Chloro-4-(2-methylphenyl)-2-oxo-N-(2,4,6-trimethoxyphenyl)-2H-1-benzopyran-3-acetamide]
90.4%	O=C(Cc1c(-c2ccccc2)c2cc(Cl)ccc2oc1=O)Nc1ccc(F)cc1F [Example 52, 6-Chloro-N-(2,4-difluorophenyl)-2-oxo-4-phenyl-2H-1-benzopyran-3-acetamide]
99.1%	COc1cccc(OC)c1NC(=O)Cc1c(-c2ccccc2)c2cc(Cl)ccc2oc1=O [Example 79, 6-Chloro-N-(2,6-dimethoxyphenyl)-2-oxo-4-phenyl-2H-1-benzopyran-3-acetamide]
98.2%	CCOc1cc(F)cc(OCC)c1NC(=O)Cc1c(-c2ccccc2C)c2cc(Cl)ccc2oc1=O [Example 89, 6-Chloro-N-(2,6-diethoxy-4-fluorophenyl)-4-(2-methylphenyl)-2-oxo-2H-1-benzopyran-3-acetamide]
